One assay concerns the target T1, mouse TRPV3 (Mus musculus, UniProt Q8K424).
T1 sequence (Q8K424 1-791): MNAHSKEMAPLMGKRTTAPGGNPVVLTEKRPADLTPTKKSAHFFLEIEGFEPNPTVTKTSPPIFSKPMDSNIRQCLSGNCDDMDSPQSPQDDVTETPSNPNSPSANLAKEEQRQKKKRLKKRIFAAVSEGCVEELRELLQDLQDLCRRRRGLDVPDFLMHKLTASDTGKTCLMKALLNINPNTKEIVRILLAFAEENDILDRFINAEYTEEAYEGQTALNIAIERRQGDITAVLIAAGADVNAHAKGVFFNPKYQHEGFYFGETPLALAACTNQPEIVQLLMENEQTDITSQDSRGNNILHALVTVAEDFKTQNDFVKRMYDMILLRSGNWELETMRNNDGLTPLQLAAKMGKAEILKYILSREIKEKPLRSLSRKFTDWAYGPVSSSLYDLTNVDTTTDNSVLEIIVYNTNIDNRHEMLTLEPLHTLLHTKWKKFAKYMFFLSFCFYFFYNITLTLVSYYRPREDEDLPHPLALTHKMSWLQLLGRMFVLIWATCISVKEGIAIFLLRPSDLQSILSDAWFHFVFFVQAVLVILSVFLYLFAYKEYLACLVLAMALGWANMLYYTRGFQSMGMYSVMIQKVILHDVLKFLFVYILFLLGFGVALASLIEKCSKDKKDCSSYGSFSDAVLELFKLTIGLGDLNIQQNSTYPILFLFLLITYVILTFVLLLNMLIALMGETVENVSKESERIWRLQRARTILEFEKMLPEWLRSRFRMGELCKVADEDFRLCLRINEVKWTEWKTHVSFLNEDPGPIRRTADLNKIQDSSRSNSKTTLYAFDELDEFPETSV
Briefly: Voltage-step whole-cell recording of TRPV3 currents (40 μM 2-APB) in HEK 293T cells. In kind it is cell-based. Details: expressed in transfected cells; host or cells: HEK 293T. The settings on record: steps –160 to +180 mV, dyclonine 10, 30 μM, RR 10 μM. The text has this: Conventional whole-cell and excised patch-clamp recording methods were used. For the recombinant expressing system, green fluorescent EGFP was used as a surface marker for gene expression. Recording pipettes were pulled from borosilicate glass capillaries (World Precision Instruments) and fire-polished to a resistance between 2 and 4 MΩ when filled with internal solution containing (in mM) 140 CsCl, 2.0 MgCl2, 5 EGTA, and 10 HEPES, pH 7.4 (adjusted with CsOH). Bath solution contained (in mM): 140 NaCl, 5 KCl, 3 EGTA, and 10 HEPES, pH 7.4 adjusted with NaOH. For recordings in keratinocytes, the bath saline consisted of (in mM) 140 NaCl, 5 KCl, 2 MgCl2, 2 CaCl2, 10 glucoses, and 10 HEPES, pH 7.4 adjusted with NaOH, and the pipette solution contained (in mM) 140 CsCl, 5 EGTA, and 10 HEPES, pH 7.3 adjusted with CsOH. […] For a subset of recordings, currents were amplified using an Axopatch 200B amplifier (Molecular Devices, Sunnyvale, CA) and recorded through a BNC-2090/MIO acquisition system (National Instruments, Austin, TX) using QStudio developed by Dr. Feng Qin at State University of New York at Buffalo. […] As determined by the conductance tests, the solution around a patch under study was fully controlled by the application of a flow rate of 100 μl/min or greater. […]

Assay [1] concerns mouse dorsal root ganglia (DRG) and trigeminal ganglia (TG) neurons. Briefly: Current-clamp recording of mouse DRG and TG neurons. In kind it is cell-based. The settings on record: dyclonine 10 μM.

From article PMC8112869, “Therapeutic inhibition of keratinocyte TRPV3 sensory channel by local anesthetic dyclonine” (eLife, 2021) come the findings set out here.

Take `CCCCOc1ccc(C(=O)CCN2CCCCC2)cc1` [dyclonine]: the “effect on TRPV3-mediated inward and outward currents (voltage dependence)” value at mouse TRPV3 is given as “the inhibition occurred independently of the membrane potential”. Moreover, the “effect on electrophysiological responses” value in assay [1] (DRG and TG neurons) is reported as “little effect”. Also, the “resting membrane potential (RMP)” value in assay [1] (DRG neurons) is “–45 ± 0.9 mV”; in assay [1] (TG neurons), “–47.2 ± 1.9 mV”.
